Source: US8598354B2, “Compounds having antiparasitic or anti-infectious activity” (University of South Florida, priority 2008, dated 2013)

What was measured:
P. falciparum = experiment: In vitro antiplasmodial activity, MSF assay, strain not specified or all 3 strains together; format: cell-based, Plasmodium falciparum; settings: for reduction of potency relative to ELQ-121: relative to ELQ-121, in vitro testing; for in vitro antiplasmodial activity (SAR remark in words): compared within the endochin series; for IC50: strain not stated, read-out: IC50 (effect of 3-position side chain length)
Method: (§1) Plasmodium falciparum strains D6 and Dd2 were obtained from the MR4 (ATCC, Manassas, Va., USA). D6 is sensitive to chloroquine but mildly resistant to mefloquine while Dd2 is resistant to multiple quinoline and antifolate antimalarial agents. Tm90.C2B is resistant to atovaquone, chloroquine, mefloquine, and quinine.
Three different laboratory strains of P. falciparum were cultured in human erythrocytes by standard methods under a low oxygen atmosphere (5% O2, 5% CO2, 90% N2) in an environmental chamber as described in Trager, W., and J. B. Jensen. 1976. Human malaria parasites in continuous culture. Science 193:673-5. The culture medium was RPMI-1640, supplemented with 25 mM HEPES buffer, 25 mg/L gentamicin sulfate, 45 mg/L hypoxanthine, 10 mM glucose, 2 mM glutamine, and 0.5% Albumax II (complete medium). The parasites were maintained in fresh human erythrocytes suspended at a 2% hematocrit in complete medium at 37° C. Stock cultures were sub-passaged every 3 to 4 days by transfer of infected red cells to a flask containing complete medium and uninfected erythrocytes.
In vitro antimalarial activity of the compounds was assessed by the SYBR Green I fluorescence-based method (the “MSF assay”) described previously by Smilkstein, M., N. Sriwilaijaroen, J. X. Kelly, P. Wilairat, and M. Riscoe. 2004. Simple and inexpensive fluorescence-based technique for high-throughput antimalarial drug screening. Antimicrob Agents Chemother 48:1803-6 with minor modifications (Winter, R. W., J. X. Kelly, M. J. Smilkstein, R. Dodean, G. C. Bagby, R. K. Rathbun, J. I. Levin, D. Hinrichs, and M. K. Riscoe. 2006. Evaluation and lead optimization of anti-malarial acridones. Exp Parasitol 114:47-56). Experiments were set up in triplicate in 96 well plates (Costar, Corning) with two-fold dilutions of each drug across the plate in a total volume of 100 microliters and at a final red blood cell concentration of 2% (v/v). Stock solutions of each drug were prepared by dissolving in ethanol or dimethylsulfoxide (as appropriate) at 10 mM. […] Automated pipeting and dilution was carried out with the aid of a programmable Precision 2000 robotic station (BioTek, Winooski, Vt.). An initial parasitemia of 0.2% was attained by addition of normal uninfected red cells to a stock culture of asynchronous parasite infected red cells (PRBC). The plates were incubated for 72 hrs at 37° C. in an atmosphere of 5% CO2, 5% O2, and 90% N2. After this period the SYBR Green I dye-detergent mixture (100 μl) was added and the plates were incubated at room temperature for an hour in the dark and then placed in a 96-well fluorescence plate reader (Spectramax Gemini-EM, […]) for analysis with excitation and emission wavelength bands centered at 497 and 520 nm, respectively. The fluorescence readings were plotted against the logarithm of the drug concentration and curve fitting by nonlinear regression analysis (GraphPad Prism software) yielded the drug concentration that produced 50% of the observed decline relative to the maximum readings in drug-free control wells (IC50).
The compounds were screened for antiplasmodial activity in vitro against chloroquine (CQ) sensitive (D6), multidrug resistant (Dd2), and chloroquine/quinine/atovaquone (ATV)-resistant (Tm90.C2B) strains of P. falciparum. […] The following observations on the structure-activity relationships (SAR) can be made: • 1. It may be observed that the length of the 3-position side chain influences the antiplasmodial effect.

[1] = tested on: Toxoplasma gondii strain 2F; experiment: Anti-T. gondii activity, 2F strain beta-galactosidase assay in HFF cells; format: cell-based; settings: compared with the correlation seen for P. falciparum
Method: Determination of anti-T. gondii IC50 and TD50 values—use of the 2F strain. This method, which employs tachyzoites of Toxoplasma gondii strain 2F that constitutively expresses cytoplasmic Beta-galactosidase, has been described recently by Jones-Brando et al. (Jones-Brando, L., D'angelo, J., Posner, G H, and Yolken, R., 2006, In vitro inhibition of Toxoplasma gondii by four new derivatives of artemisinin, Antimicrobial Agents and Chemotherapy 50: 4206-8). […] Briefly, each drug was dissolved in ethanol or DMSO, as appropriate, at a concentration of 10 mM and diluted with complete Dulbecco's modified Eagle's medium (DMEM) to 1,000 μM. […] After this period, Triton X-100 is added to inactivate the parasite and the color reactions in the wells were read in a microplate reader. For anti-T. gondii IC50 determinations, the plates are read at 570-650 nm. The amount of absorbance (570-650 nm) in wells containing drug, parasites, and CPRG reagent is compared to that in control wells containing T. gondii, HFF cells and CPRG. The amount of absorbance in these wells is directly proportional to the amount of beta-galactosidase activity and thus correlative to the number of viable tachyzoites in each well. Thus, a decrease in the amount of absorbance indicates an inhibition of parasite growth. […]

[2] = tested on: Plasmodium falciparum strain D6 (chloroquine sensitive); experiment: In vitro antimalarial activity, SYBR Green I fluorescence-based method (MSF assay), strain D6; format: cell-based; settings: P. falciparum D6, 72 hrs
Method: as §1
(§2) Three different laboratory strains of P. falciparum were cultured in human erythrocytes by standard methods under a low oxygen atmosphere (5% O2, 5% CO2, 90% N2) in an environmental chamber as described in Trager, W., and J. B. Jensen. 1976. Human malaria parasites in continuous culture. Science 193:673-5. […]
(§3) In vitro antimalarial activity of the compounds was assessed by the SYBR Green I fluorescence-based method (the “MSF assay”) described previously by Smilkstein, M., N. Sriwilaijaroen, J. X. Kelly, P. Wilairat, and M. Riscoe. […] Simple and inexpensive fluorescence-based technique for high-throughput antimalarial drug screening. […] After this period the SYBR Green I dye-detergent mixture (100 μl) was added and the plates were incubated at room temperature for an hour in the dark and then placed in a 96-well fluorescence plate reader (Spectramax Gemini-EM, […]) for analysis with excitation and emission wavelength bands centered at 497 and 520 nm, respectively. […]

[3] = Water solubility and vehicle miscibility of the prodrug; format: physicochemical; settings: prodrug compared with ELQ-121
P. yoelii = experiment: In vivo efficacy in a murine malaria model of patent infection with P. yoelii (modified Thompson procedure)
Method: The activity of the ester, ELQ-125, against the blood stages was assessed using a modified Thompson procedure (Arba Ager, 1984). Rodent malaria models, vol. 68/1. Springer-Verlag, Berlin. Mice (female, CF1) were infected intravenously with 1-5 million P. yoelii parasitized erythrocytes from a donor animal. […] The drug was administered by gavage once daily for 3 days. On the 4th day blood films were prepared and the extent of parasitemia was determined microscopically. ED50 and ED90 values (mg/kg/day) were derived from the dose required to reduce the parasite burden by 50% and 90%, respectively, relative to drug-free controls. The procedures involved, together with all matters relating to the care and housing of the animals used in this study, were approved by the Portland VA Medical Center Institutional Animal Care and Use Committee (approval #0807).
Prodrugs containing a water-soluble pro-moiety that could be metabolically released after drug administration were designed and synthesized.

[4] = tested on: Plasmodium falciparum strain Tm90.C2B (chloroquine/quinine/atovaquone-resistant); experiment: In vitro antimalarial activity, MSF assay, strain Tm90.C2B; format: cell-based; settings: Tm90.C2B compared with the other strains
Method: as §1, §2, §3

[5] = mice, gavage once daily for 3 days in 100 μl NeoBee M5

In the case of `CCCCCCCc1c(C)n(C)c2cc(F)cc(F)c2c1=O` [ELQ-134], the “reduction of potency relative to ELQ-121” value (P. falciparum) is reported as “about 300 fold” and the “growth inhibitory activity against Toxoplasma gondii (in words)” value [1] is reported as “enhanced growth inhibitory activity”.

For `CCCCCCCc1c(C)[nH]c2cc(O)ccc2c1=O` [ELQ-117], the “in vitro antiplasmodial activity (SAR remark in words)” value (“in vitro antiplasmodial activity” below) (P. falciparum) was “greatly diminishes antiplasmodial activity”.

With `CCCCc1c(C)[nH]c2cc(OC)ccc2c1=O` [ELQ-115] the IC50 (P. falciparum) was ~30 nM.

In the case of `CCCCCCCc1c(C)[nH]c2cc(Cl)cc(Cl)c2c1=O` [ELQ-124], the “in vitro antiplasmodial activity” value (P. falciparum) is reported as “weak in vitro activity”.

For `CCCCCCCc1c(C)[nH]c2cc(F)ccc2c1=O` [ELQ-120], the “in vitro antiplasmodial activity” value (P. falciparum) was “only a modest reduction in in vitro potency”.

In the case of `CCCCCCCc1c(O)[nH]c2cc(OC)ccc2c1=O` [ELQ-106], the IC50 [2] is reported as > 2500 nM.

With `CCCCCCCc1c(C)[nH]c2c(F)cc(F)cc2c1=O` [6,8-difluoro positional isomer] the “reduction of potency relative to ELQ-121” value (P. falciparum) was “≈ 2,000 fold”.

With `CCCCCCCc1c(C)nc2cc(F)cc(F)c2c1Cl` [ELQ-119] the “reduction of potency relative to ELQ-121” value (P. falciparum) was > 1,000 fold.

With `CCCCCCCc1c(C)nc2cc(F)cc(F)c2c1OC(=O)OCCOCCOCCOCCOC` [ELQ-125] the water solubility [3] was “improved water solubility”, the “parasite status on follow-up” value (P. yoelii; 25 mg/kg/day oral, 3 days, followed until euthanized 10 days later) was “remained parasite-free” and the ED50 (P. yoelii; [5]) was 11 mg/kg/day. The ED90 (P. yoelii; [5]) was 22 mg/kg/day and the “in vivo efficacy (in words)” value (P. yoelii; prodrug compared with ELQ-121) was “greatly enhanced in vivo efficacy”.

For `CCCCCCCc1c(C)[nH]c2cc(Cl)ccc2c1=O` [ELQ-109], the “in vitro antiplasmodial activity” value (P. falciparum) was “only a modest reduction in in vitro potency”.

In the case of `CCCCCCCc1c(C)[nH]c2ccc(Cl)cc2c1=O` [ELQ-130], the “in vitro antiplasmodial activity” value (P. falciparum) is reported as “modest reduction in antimalarial response” and the “cross-resistance / sensitivity of atovaquone-resistant Tm90.C2B (in words)” value [4] is reported as “equal sensitivity”.

In the case of `CCCCCCCc1c(C)[nH]c2cc(OC)ccc2c1=O` [ELQ-100, endochin, reference compound], the IC50 (P. falciparum) is reported as ~3 nM and the “cross-resistance / sensitivity of atovaquone-resistant Tm90.C2B (in words)” value [4] is reported as “modest level of ATV cross-resistance”.

With `COc1ccc2c(=O)c(CCCCCCCCCCC(F)(F)F)c(C)[nH]c2c1` [ELQ-103] the “IC50 values for all 3 tested strains (in words)” value (P. falciparum; D6, Dd2 and Tm90.C2B) was “low nanomolar range”.

For `CCCCCCCc1c(C)[nH]c2ccccc2c1=O` [ELQ-127], the “in vitro antiplasmodial activity” value (P. falciparum) was “equally active against all three parasite strains” and the “weakening of in vitro activity relative to endochin” value (P. falciparum; relative to endochin) was “roughly 5 fold”.

In the case of `CCCCCCCc1c(C)[nH]c2cc(F)cc(F)c2c1=O` [ELQ-121, 2-Methyl-3-(n-heptyl)-5.7-difluorquinolone], the “in vitro antiplasmodial activity” value (P. falciparum) is reported as “one of the most potent compounds in the tested series”.
